SMILES strings stand for the structures. ≈ marks a conversion by molar mass, not a printed value.

MIC and ED50 data for nine compounds are collected here from patent US5591714A, “Derivatives of A82846” (priority 1994, dated 1997).

The subject of test [1] is Klebsiella pneumoniae X68. Kind of test: MIC, standard agar-dilution assay. Format: cell-based. As for the experimental part: (§1) The formula I compounds have in vitro and in vivo activity against Gram-positive pathogenic bacteria. The MIC's were determined using a standard agar-dilution assays.
Test [2] has as its system Staphylococcus aureus V41. Kind of test: MIC, standard agar-dilution assay. The class given is cell-based. As for the experimental part: as §1
The test system of test [3] is Staphylococcus aureus X400. Kind of test: MIC, standard agar-dilution assay. The class given is cell-based. As for the experimental part:
as §1

The test system of test [4] is Streptococcus pyogenes C203. Kind of test: MIC, standard agar-dilution assay. The class given is cell-based. On the procedure:
as §1

Test [5] relates to Staphylococcus epidermidis EPI270. Briefly: MIC, standard agar-dilution assay. Format: cell-based. As for the experimental part:
as §1

Test [6] concerns Staphylococcus epidermidis 222. Briefly: MIC, standard agar-dilution assay. The class given is cell-based. As for the experimental part:
as §1

Test [7] relates to Klebsiella pneumoniae X26. Kind of test: MIC, standard agar-dilution assay. Format: cell-based. As for the experimental part:
as §1

Test [8] has as its system Staphylococcus aureus NRRL X1.1. Briefly: MIC, standard agar-dilution assay. The class given is cell-based. On the procedure:
as §1

The test system of test [9] is Haemophilus influenzae C.L. Kind of test: MIC, standard agar-dilution assay. Format: cell-based. On the procedure:
as §1

Test [10] deals with Klebsiella pneumoniae KAE. Kind of test: MIC, standard agar-dilution assay. The class given is cell-based. On the procedure:
as §1

In test [11] the test system is Haemophilus influenzae 76. Kind of test: MIC, standard agar-dilution assay. The class given is cell-based. As for the experimental part: as §1
For the next test, the system named is Streptococcus pyogenes. Kind of test: In vivo activity, experimentally infected mice (ED50). The following applies: Streptococcus pyogenes infection; doses administered subcutaneously to mice 1 and 4 hours postinfection.
The subject of test [12] is Staphylococcus aureus S13E. The class given is cell-based. On the procedure: as §1
Test [13] concerns Streptococcus pneumoniae Park 1. The class given is cell-based. On the procedure: as §1
Test [14] deals with Enterococcus faecalis 2041. Briefly: MIC, standard agar-dilution assay. The class given is cell-based. As for the experimental part:
as §1
^c Formerly Streptococcus faecalis 2041

In a further test the test system is Enterococcus faecium X66. Kind of test: MIC, standard agar-dilution assay. Format: cell-based. As for the experimental part: as §1
^b Formerly Streptococcus faecium X66

The test system of the next test is Staphylococcus aureus. Briefly: In vivo activity, experimentally infected mice (ED50). The note with it: Staphylococcus aureus infection; doses administered subcutaneously to mice 1 and 4 hours postinfection.
Another test deals with Streptococcus pneumoniae. The description is as above. The following applies: Streptococcus pneumoniae infection; doses administered subcutaneously to mice 1 and 4 hours postinfection.
The test system of another test is Escherichia coli EC14. Briefly: MIC, standard agar-dilution assay. Format: cell-based. As for the experimental part: as §1
A further test relates to Escherichia coli N10. Kind of test: MIC, standard agar-dilution assay. Format: cell-based. On the procedure: as §1
The next test concerns Escherichia coli TEM. Briefly: MIC, standard agar-dilution assay. Format: cell-based. As for the experimental part:
as §1

Regarding `CN[C@H](CC(C)C)C(=O)N[C@H]1C(=O)N[C@@H](CC(N)=O)C(=O)N[C@H]2C(=O)N[C@H]3C(=O)N[C@H](C(=O)N[C@H](C(=O)O)c4cc(O)cc(O)c4-c4cc3ccc4O)[C@H](O[C@H]3C[C@](C)(NCc4ccccc4)[C@@H](O)[C@H](C)O3)c3ccc(cc3)Oc3cc2cc(c3O[C@@H]2O[C@H](CO)[C@@H](O)[C@H](O)[C@H]2O[C@H]2C[C@](C)(NCc3ccccc3)[C@@H](O)[C@H](C)O2)Oc2ccc(cc2Cl)[C@H]1O` [Compound 11], the MIC in [1] was > 128 µg/mL; in test [2] it was “.5 µg/mL”; in test [3], “.5 µg/mL”; in [4], “.25 µg/mL”; in [5] it was 1 µg/mL (≈ 0.575 µM); in test [6] it was “.5 µg/mL”. In addition, the MIC in [7] is > 128 µg/mL; in test [8], “.25 µg/mL”; in test [9] it was > 128 µg/mL; in test [10], > 128 µg/mL; in test [11], > 128 µg/mL; in test [12], “.25 µg/mL”. Also, the MIC result was “.25 µg/mL” in test [13], 1 µg/mL (≈ 0.575 µM) in [14] and “.25 µg/mL” against Enterococcus faecium X66. Further, the values for the ED50 in the test with Streptococcus pyogenes, with Staphylococcus aureus and in the test on Streptococcus pneumoniae were 0.34 mg/kg/2, 0.58 mg/kg/2 and 0.37 mg/kg/2, respectively.

Regarding `CC(C)C[C@H](C(=O)N[C@H]1C(=O)N[C@@H](CC(N)=O)C(=O)N[C@H]2C(=O)N[C@H]3C(=O)N[C@H](C(=O)N[C@H](C(=O)O)c4cc(O)cc(O)c4-c4cc3ccc4O)[C@H](O[C@H]3C[C@](C)(NCc4ccccc4)[C@@H](O)[C@H](C)O3)c3ccc(cc3)Oc3cc2cc(c3O[C@@H]2O[C@H](CO)[C@@H](O)[C@H](O)[C@H]2O[C@H]2C[C@](C)(NCc3ccccc3)[C@@H](O)[C@H](C)O2)Oc2ccc(cc2Cl)[C@H]1O)N(C)Cc1ccccc1` [Compound 12], the MIC in [1] was > 128 µg/mL; in test [2] it was 8 µg/mL (≈ 4.38 µM); in test [3] it was 8 µg/mL (≈ 4.38 µM); in test [4], 2 µg/mL (≈ 1.09 µM); in test [5], 8 µg/mL (≈ 4.38 µM); in test [6], 8 µg/mL (≈ 4.38 µM). Moreover, the MIC was > 128 µg/mL in test [7]; 8 µg/mL (≈ 4.38 µM) in test [8]; > 128 µg/mL in test [9]; > 128 µg/mL in test [10]; > 128 µg/mL in [11]; 4 µg/mL (≈ 2.19 µM) in test [12]. Also, the MIC in test [13] came to 2 µg/mL (≈ 1.09 µM); in [14], 8 µg/mL (≈ 4.38 µM); in the test on Enterococcus faecium X66 it was 4 µg/mL (≈ 2.19 µM).

Regarding `CNC(CC(C)C)C(=O)NC1C(=O)NC(CC(N)=O)C(=O)NC2C(=O)NC3C(=O)NC(C(=O)NC(C(=O)O)c4cc(O)cc(O)c4-c4cc3ccc4O)C(OC3CC(C)(NCc4ccc(Br)cc4)C(O)C(C)O3)c3ccc(c(Cl)c3)Oc3cc2cc(c3OC2OC(CO)C(O)C(O)C2OC2CC(C)(NCc3ccc(Br)cc3)C(O)C(C)O2)Oc2ccc(cc2Cl)C1O` (stereo not drawn) [Compound 59], the results for the ED50 in the test with Streptococcus pyogenes, with Staphylococcus aureus and with Streptococcus pneumoniae were 0.25 mg/kg/2, 3.16 mg/kg/2 and < 0.31 mg/kg/2, respectively.

With `CNC(CC(C)C)C(=O)NC1C(=O)NC(CC(N)=O)C(=O)NC2C(=O)NC3C(=O)NC(C(=O)NC(C(=O)O)c4cc(O)cc(O)c4-c4cc3ccc4O)C(OC3CC(C)(NCc4ccc(Cl)cc4)C(O)C(C)O3)c3ccc(c(Cl)c3)Oc3cc2cc(c3OC2OC(CO)C(O)C(O)C2OC2CC(C)(NCc3ccc(Cl)cc3)C(O)C(C)O2)Oc2ccc(cc2Cl)C1O` (stereo not drawn) [Compound 61], the ED50 is on record as 0.10 mg/kg/2 with Streptococcus pyogenes, 1.83 mg/kg/2 in the test on Staphylococcus aureus and 0.08 mg/kg/2 with Streptococcus pneumoniae.

With `CNC(CC(C)C)C(=O)NC1C(=O)NC(CC(N)=O)C(=O)NC2C(=O)NC3C(=O)NC(C(=O)NC(C(=O)O)c4cc(O)cc(O)c4-c4cc3ccc4O)C(OC3CC(C)(NCc4cccc(Cl)c4)C(O)C(C)O3)c3ccc(c(Cl)c3)Oc3cc2cc(c3OC2OC(CO)C(O)C(O)C2OC2CC(C)(NCc3cccc(Cl)c3)C(O)C(C)O2)Oc2ccc(cc2Cl)C1O` (stereo not drawn) [Compound 65], the ED50 in the test on Streptococcus pyogenes was found to be 0.15 mg/kg/2; in the test on Staphylococcus aureus it was 1.59 mg/kg/2; with Streptococcus pneumoniae, 0.11 mg/kg/2.

For the compound `CNC(CC(C)C)C(=O)NC1C(=O)NC(CC(N)=O)C(=O)NC2C(=O)NC3C(=O)NC(C(=O)NC(C(=O)O)c4cc(O)cc(O)c4-c4cc3ccc4O)C(OC3CC(C)(NCc4ccc(F)cc4)C(O)C(C)O3)c3ccc(c(Cl)c3)Oc3cc2cc(c3OC2OC(CO)C(O)C(O)C2OC2CC(C)(N)C(O)C(C)O2)Oc2ccc(cc2Cl)C1O` (stereo not drawn) [Compound 66], the MIC in test [1] is > 128 µg/mL; in test [2], 1 µg/mL (≈ 0.588 µM); in test [3], 1 µg/mL (≈ 0.588 µM); in [4], “.5 µg/mL”; in [5], 2 µg/mL (≈ 1.18 µM); in test [6], 1 µg/mL (≈ 0.588 µM). Also, the MIC in test [7] is > 128 µg/mL; in test [8], “.5 µg/mL”; in test [9], > 128 µg/mL; in test [10] it was > 128 µg/mL; against Escherichia coli EC14, > 128 µg/mL; in test [11], > 128 µg/mL. Also, the MIC was > 128 µg/mL in the test with Escherichia coli N10; 1 µg/mL (≈ 0.588 µM) in test [12]; “.25 µg/mL” in [13]; 1 µg/mL (≈ 0.588 µM) in test [14]; 1 µg/mL (≈ 0.588 µM) in the test with Enterococcus faecium X66. For the same compound, the ED50 in the test with Streptococcus pyogenes came to 0.18 mg/kg/2; in the test on Staphylococcus aureus, 0.37 mg/kg/2; in the test with Streptococcus pneumoniae it was 0.22 mg/kg/2.

Take `CNC(CC(C)C)C(=O)NC1C(=O)NC(CC(N)=O)C(=O)NC2C(=O)NC3C(=O)NC(C(=O)NC(C(=O)O)c4cc(O)cc(O)c4-c4cc3ccc4O)C(OC3CC(C)(N)C(O)C(C)O3)c3ccc(c(Cl)c3)Oc3cc2cc(c3OC2OC(CO)C(O)C(O)C2OC2CC(C)(NCc3ccc(F)cc3)C(O)C(C)O2)Oc2ccc(cc2Cl)C1O` (stereo not drawn) [Compound 67]: the MIC in test [1] was > 128 µg/mL; in test [2], 1 µg/mL (≈ 0.588 µM); in [3], 1 µg/mL (≈ 0.588 µM); in test [4], “.25 µg/mL”; in test [5], 2 µg/mL (≈ 1.18 µM); in [6], “.5 µg/mL”. Moreover, the MIC in test [7] was > 128 µg/mL; in [8], “.5 µg/mL”; in test [9], > 128 µg/mL; in test [10] it was > 128 µg/mL; in the test with Escherichia coli EC14, > 128 µg/mL; in test [11] it was > 128 µg/mL. Further, the MIC in the test on Escherichia coli N10 was > 128 µg/mL; in [12], 1 µg/mL (≈ 0.588 µM); in [13], “.125 µg/mL”; in test [14] it was “.5 µg/mL”; in the test with Enterococcus faecium X66 it was “.5 µg/mL”. Moreover, the figures for the ED50 with Streptococcus pyogenes, in the test on Staphylococcus aureus and with Streptococcus pneumoniae were < 0.12 mg/kg/2, 0.33 mg/kg/2 and < 0.12 mg/kg/2, respectively.

`CNC(CC(C)C)C(=O)NC1C(=O)NC(CC(N)=O)C(=O)NC2C(=O)NC3C(=O)NC(C(=O)NC(C(=O)O)c4cc(O)cc(O)c4-c4cc3ccc4O)C(OC3CC(C)(NCc4ccc(F)cc4)C(O)C(C)O3)c3ccc(c(Cl)c3)Oc3cc2cc(c3OC2OC(CO)C(O)C(O)C2OC2CC(C)(NCc3ccc(F)cc3)C(O)C(C)O2)Oc2ccc(cc2Cl)C1O` (stereo not drawn) [Compound 68]: the ED50 with Streptococcus pyogenes turned out to be 0.09 mg/kg/2; in the test on Staphylococcus aureus, 0.80 mg/kg/2; in the test on Streptococcus pneumoniae it was 0.12 mg/kg/2.

`CNC(CC(C)C)C(=O)NC1C(=O)NC(CC(N)=O)C(=O)NC2C(=O)NC3C(=O)NC(C(=O)NC(C(=O)O)c4cc(O)cc(O)c4-c4cc3ccc4O)C(OC3CC(C)(NCc4ccccc4)C(O)C(C)O3)c3ccc(c(Cl)c3)Oc3cc2cc(c3O)Oc2ccc(cc2Cl)C1O` (stereo not drawn) [Compound 79]: the MIC is > 128 µg/mL in test [1]; “.25 µg/mL” in test [2]; “.5 µg/mL” in test [3]; “.25 µg/mL” in test [4]; “.5 µg/mL” in test [6]; > 128 µg/mL in test [7]. Besides, the MIC result was “.25 µg/mL” in [8]; > 128 µg/mL in test [9]; > 128 µg/mL in test [10]; > 128 µg/mL with Escherichia coli TEM; > 128 µg/mL in the test with Escherichia coli EC14; > 128 µg/mL in test [11]. Moreover, the MIC in the test on Escherichia coli N10 is > 128 µg/mL; in test [12], “.25 µg/mL”; in [13], “.25 µg/mL”; in test [14], 1 µg/mL (≈ 0.726 µM); against Enterococcus faecium X66, 1 µg/mL (≈ 0.726 µM). Besides, the ED50 with Streptococcus pyogenes is given as 0.71 mg/kg/2; with Staphylococcus aureus, > 1.0 mg/kg/2; in the test with Streptococcus pneumoniae it was 0.71 mg/kg/2.
